Experimental data reported in ChEMBL document CHEMBL1158095, “Trungapeptins A-C, cyclodepsipeptides from the marine cyanobacterium Lyngbya majuscula” (J Nat Prod, 2006).
The source made the active and inactive calls. The calls are words filed in the database; no cut-off is given here.

How the values were obtained:
[1] = test system: KB; assay: Cytotoxicity against human KB cells at 10 ug/mL; assay type: functional, cell-based
[2] = test system: LoVo; assay: Cytotoxicity against human LoVo cells at 10 ug/mL; assay type: functional, cell-based

C#CCCC[C@H]1OC(=O)[C@H]([C@@H](C)CC)NC(=O)[C@@H]2CCCN2C(=O)[C@H](Cc2ccccc2)OC(=O)[C@H](C(C)C)N(C)C(=O)[C@H](C(C)C)NC(=O)[C@H]1C
Activity [1]: inactive | Activity [2]: inactive
